Data on three molecules can be found in patent publication US11660270B2, “Nanoparticle compositions” (Indiana University Research and Technology Corporation, priority 2017, dated 2023).

The nature of series [1]: Solvent screening for dissolving drugs and polymers. The conditions noted are these: added to 1 ml of test solvent, vortex; smallest amount of solvent for immediate solubilization. The series is classed as physicochemical. Here is the method: The following solvents were compared for use as drug solvents in nanoprecipitation: acetone, ethanol, tetrahydrofuran (THF), acetic acid, acetonitrile, dimethylsulfoxide (DMSO), dimethylformamide (DMF), N-methylpyrrolidone (NMP), methanol, n-propanol and isopropanol.
Chloroform, dichloromethane (DCM), ethanol, acetone, methanol and ethyl acetate were tested as polymer solvents.
Drugs (thyrotropin-releasing hormone (TRH), oxytocin, and luteinizing hormone-releasing hormone (LHRH)) and polymers (polysebacic acid, and PLGA (poly(lactide-co-glycolide)) with either a 1:1 or 3:1 molar ratio of lactide to glycolide) were added to 1 ml of test solvent and stirred vigorously by vortex.

The conditions of series [2]: in vivo; cited from earlier work.

Turning to “luteinizing hormone-releasing hormone [LHRH]”, the “best solvent for dissolving” value in series [1] is “acetic acid”.

Turning to `NC(=O)[C@@H]1CCCN1C(=O)[C@H](Cc1cnc[nH]1)NC(=O)[C@@H]1CCC(=O)N1` [TRH, pyroglutamyl-histidyl-proline-amide], in series [1], the “best solvent for dissolving” value is recorded as “Ethanol”. The plasma half-life entry in series [2] is “about 8 minutes”.

As for `CC[C@H](C)[C@@H]1NC(=O)[C@H](Cc2ccc(O)cc2)NC(=O)[C@@H](N)CSSC[C@@H](C(=O)N2CCC[C@H]2C(=O)N[C@@H](CC(C)C)C(=O)NCC(N)=O)NC(=O)[C@H](CC(N)=O)NC(=O)[C@H](CCC(N)=O)NC1=O` [oxytocin], the “best solvent for dissolving” value in series [1] is given as “acetic acid”.
